Measured values from patent US20070123556A1, “Treatment with Sigma Receptor Agonists Post-Stroke” (UNIVERSITY OF SOUTH FLORIDA, priority 2005, published 2007).
Read-outs that look alike come from different tables or passages of the source.

Legend:
[1] = system: cultured cortical neurons; assay: in vitro ischemia (sodium azide/glucose deprivation), fura-2 [Ca2+]i; assay type: cell-based, rat; settings: for IC50: Langmuir-Hill fit, read-out: IC50 (half-maximal concentration), inhibition of ischemia-evoked increases in [Ca2+]i
Protocol: The effects of sigma receptors on ischemia-induced changes in intracellular calcium concentrations were studied in cultured cortical neurons from embryonic (E18) rats. Dams were euthanatized by decapitation, uterus removed, and embryos dissected out and placed in isotonic buffer containing (in mM): 137 NaCl, 5 KCl, 0.2 NaH2PO4, 0.2 KH2PO4, 5.5 glucose, 6 sucrose (pH 7.4 with NaOH). Cortex were excised and minced, and tissue digested in isotonic buffer containing 0.25% trypsin/EDTA for 10 min at 37° C. and added to 3× volume of high glucose culture media (Dulbecco's Modified Eagle Media; Invitrogen, Inc., Carlsbad, Calif.), 10% (v/v) fetal calf serum, 100 U/ml penicillin and 0.1 mg/ml streptomycin. Cells were counted on a hemocytometer, plated (0.5×10^6 cells) on 18 mm coverslips coated with poly-l-lysine, and incubated at 37° C. under a 95% air, 5% CO2 atmosphere. After 24 hr the media was replaced with Neurobasal (Invitrogen) medium supplemented with B27 (Invitrogen) and 0.5 mM 1-glutamine to limit astrocyte proliferation in the cultures. Cells were used after 14-21 days in culture.
Intracellular free-calcium was measured using the calcium sensitive dye, fura-2 as previously described (DeHaven and Cuevas, 2004). Cells plated on coverslips were incubated for 1 hour at room temperature in physiological saline solution (PSS) consisting of (in mM): 140 NaCl, 3 KCl, 2.5 CaCl2, 1.2 MgCl2, 7.7 glucose and 10 HEPES (pH to 7.2 with NaOH), which also contained 1 μM of the membrane permeable ester form of fura-2, acetoxymethylester (fura-2 AM) and 0.1% dimethyl sulfoxide (DMSO). The coverslips were then washed in PSS (fura-2 AM free) prior to the experiments being carried out. All solutions were applied via a rapid application system identical to that previously described (Cuevas and Berg, 1998).
A DG-4 high-speed wavelength switcher (Sutter Instruments Co., Novato, Calif.) was used to apply alternating excitation light, and fluorescent emission was captured using a Sensicam digital CCD camera (Cooke Corporation, Auburn Hills, Mich.) and recorded with Slidebook 3.0 software (Intelligent Imaging Innovations, Denver, Colo.). Changes in [Ca^2+]i were calculated using the Slidebook 3 software (Intelligent Imaging Innovations) using methods described previously (DeHaven and Cuevas, 2004).
In vitro ischemia was achieved using the sodium azide/glucose deprivation model.
The control bath solution for all experiments was a physiological saline solution (PSS) containing (in mM) 140 NaCl, 1.2 MgCl2, 3 KCl, 2.5 CaCl2, 7.7 glucose and 10 HEPES, pH to 7.2 with NaOH. All drugs were applied in this solution unless otherwise noted. In vitro ischemia was induced by addition of the cytochrome oxidase inhibitor, NaN3 (4 mM), and removal of glucose from the PSS. For experiments in which multiple ischemic episodes were induced in a single cell, the order of drug application was alternatively reversed to compensate for any effects due to rundown, desensitization or ischemic preconditioning. For experiments with metaphit, cells were preincubated in 50 μM metaphit during the last 15 mm of fura-2 loading and immediately prior to experiments being conducted. The metaphit was washed off for 5 min in the bath using PSS.

ASIC channels = assay: low-pH (pH 6.0) evoked ASIC-mediated increases in [Ca2+]i; assay type: cell-based, rat; settings: 50 μM, pH 6.0, reversible
[2] = system: delayed outwardly rectifying K+ channels; settings: frog pituitary melanotrophs; read-out: IC50 inhibition of delayed outwardly rectifying K+ channels; cited from earlier work
sigma-1 receptors = sigma-1 receptors (Homo sapiens, UniProt Q99720); settings: cited from earlier work
Sequence of sigma-1 receptors (Q99720 whole entry): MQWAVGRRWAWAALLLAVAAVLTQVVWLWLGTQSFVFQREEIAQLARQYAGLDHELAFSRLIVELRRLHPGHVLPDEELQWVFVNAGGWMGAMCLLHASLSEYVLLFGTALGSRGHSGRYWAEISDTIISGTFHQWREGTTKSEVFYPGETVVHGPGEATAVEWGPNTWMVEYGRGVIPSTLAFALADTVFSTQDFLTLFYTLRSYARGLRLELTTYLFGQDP

voltage-gated K channels = settings: rat intracardiac neurons; read-out: IC50 inhibition of voltage-gated K channels; cited from earlier work
glutamate receptors = settings: cited from earlier work
[3] = system: cultured cortical neurons; assay: spontaneous Ca2+ transients, fura-2 [Ca2+]i; assay type: cell-based, rat
rat hippocampal slices = rat hippocampal slices (Thurgur and Church, 1998); read-out: value reported for inhibition of epileptiform activity; cited from earlier work
[4] = system: transient ischemia model (MCAO); settings: intravenous, 1-2 hr following reperfusion; cited from earlier work
voltage-gated Ca2+ = settings: rat intracardiac neurons; read-out: IC50 inhibition of voltage-gated Ca2+; cited from earlier work
sigma-2 receptors = sigma-2 receptors (Homo sapiens, UniProt Q5BJF2); settings: cited from earlier work
Sequence of sigma-2 receptors (Q5BJF2 whole entry): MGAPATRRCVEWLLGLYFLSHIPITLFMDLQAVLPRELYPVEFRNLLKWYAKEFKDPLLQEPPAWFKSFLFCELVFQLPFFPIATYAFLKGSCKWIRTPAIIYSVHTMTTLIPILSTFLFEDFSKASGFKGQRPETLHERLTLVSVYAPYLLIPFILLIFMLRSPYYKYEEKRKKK

Molecule: CN(C)CCN(C)CCc1ccc(Cl)c(Cl)c1 [BD-1047, N-[2-(3,4-dichlorophenyl)ethyl]-N-methyl-2-(dimethylamino)ethylamine]
- reduction of the effects of DTG on ischemia-evoked calcium transients ([1]; 1 pM BD-1047, with DTG): 15%
- reduction of the effects of DTG on ischemia-evoked calcium transients ([1]; 10 pM BD-1047, with DTG): 55%

Molecule: ryanodine
- effect on ischemia-induced peak elevation in [Ca2+]i [1]: did not significantly alter

Molecule: CC(C)=CCN1CCC2(C)c3cc(O)ccc3CC1C2C (single isomer, unassigned; (+)) [(+)-pentazocine]
- decrease of low-pH evoked increases in [Ca2+]i (ASIC channels): 50%
- IC50 [2]: 37 µM
- decrease of ischemia-induced elevations in [Ca2+]i ([1]; 10 μM): 37±5%
- decrease of ischemia-induced elevations in [Ca2+]i ([1]; 10 μM, listed as (+) pentazocine): ~60%
- decrease of ischemia-induced elevations in [Ca2+]i ([1]; 100 μM): 49±4%
- affinity of sigma-1 receptors relative to ibogaine (sigma-1 receptors): ~2000 fold
- IC50 (voltage-gated K channels): 42 µM

Molecule: NC1=N[C@H](O)[C@H]2[C@H]3O[C@]4(O)O[C@@H]([C@@H](O)[C@@]2(N1)[C@@H]4O)[C@]3(O)CO [TTX, tetrodotoxin]
- decrease of ischemia-evoked increase in [Ca2+]i [1]: 65±4%

Molecule: C=CCN1CCC2(C)c3cc(O)ccc3CC1C2C (single isomer, unassigned; (+)) [(+)SKFIOO47]
- inhibition of calcium elevations evoked by glutamate application (glutamate receptors; 10 μM): inhibit

Molecule: C/C=C(/C)C(=O)O[C@H]1C(C)=C2[C@H]([C@@H]1OC(=O)CCCCCCC)[C@@](C)(OC(C)=O)C[C@H](OC(=O)CCC)[C@@]1(O)[C@H]2OC(=O)[C@@]1(C)O [thapsigargin]
- effect on ischemia-induced peak elevation in [Ca2+]i ([1]; 10 μM, thapsigargin by preincubation): decreased the peak elevation

Molecule: CCN(CC)CCOCCOC(=O)C1(c2ccccc2)CCCC1 [carbetapentane]
- inhibition of calcium elevations evoked by glutamate application (glutamate receptors; 100 μM): not
- IC50 [1]: 13 µM
- IC50 ([1]; Rattus norvegicus, Cortical neurone): 13.3 µM
- affinity of sigma-1 receptors relative to sigma-2 receptors (sigma-1 receptors; sigma-1 over sigma-2): > 30 fold
- effect on spontaneous increases in [Ca2+]i (number of events) ([3]; 100 μM): significant decrease
- IC50 (rat hippocampal slices): 38 µM

Molecule: metaphit
- ischemia-induced elevation in [Ca2+]i ([1]; preincubation in 50 μM metaphit, no DTG): 495 ± 68 nM

Molecule: O=C(CCCN1CCC(O)(c2ccc(Cl)cc2)CC1)c1ccc(F)cc1 [haloperidol]
- inhibition of calcium elevations evoked by glutamate application (glutamate receptors; 10 μM): inhibit

Molecule: O=C(OCCN1CCOCC1)C1(c2ccccc2)CCCCC1 [PRE-084]
- decrease of ischemia-induced elevations in [Ca2+]i ([1]; 10 μM): 26±4%
- decrease of ischemia-induced elevations in [Ca2+]i ([1]; 100 μM): 58±1%

Molecule: c1ccc(CCCCN2CCC(c3ccccc3)CC2)cc1 [PPBP, 4-phenyl-1-(4-phenylbutyl)piperidine]
- decrease in neurodegeneration in brain sections [4]: 40%

Molecule: ibogaine
- IC50 (voltage-gated Ca2+): 31 µM
- affinity of sigma-2 receptors relative to (+)-pentazocine (sigma-2 receptors): ~6 fold
- affinity of sigma-2 receptors relative to sigma-1 receptors (sigma-2 receptors; sigma-2 over sigma-1): > 40 fold
- decrease of low-pH evoked increases in [Ca2+]i (ASIC channels): 70%
- effect on ischemia-induced elevations in [Ca2+]i ([1]; 1-100 μM): failed to inhibit
- effect on number of spontaneous calcium events ([3]; 50 μM): significantly decreased
